Legend:
[1] = molecular target: T1, Proteinase K (Parengyodontium album, UniProt P06873); assay: Proteinase K degradation assay (SDS-PAGE); assay type: in vitro ADME; conditions: 0.5 µg LL-37, 20 ng Proteinase K, 20 mM Tris-HCl pH 8.0, 37 °C, up to 240 min, at least three repetitions
T1 construct: purchased Qiagen, Hilden, Germany
Description: A total of 0.5 µg LL-37, either loaded on nanoparticles or not, was subjected to Proteinase K degradation assay. Input samples were taken without Proteinase K added, as a positive control and is considered to be “100%” when calculating protein amounts. LL-37 was incubated in 20 mM Tris-HCl, pH 8.0 with a total of 20 ng Proteinase K (Qiagen, Hilden, Germany) added to the reaction. Samples were incubated at 37 °C until given timepoints where the reaction was stopped by the addition of SDS loading buffer (at a final concentration of 50 mM Tris-HCl pH 6.8, 2% SDS, 10% glycerol, 1% β-mercaptoethanol, 12.5 mM EDTA and 0.02% Bromophenol blue) and samples were then immediately boiled for 10 min at 98 °C.
Samples were loaded onto a NuPAGE 4%–12% Bis-Tris gel (Invitrogen, Carlsbad, CA, USA) and run in MES-buffer (Invitrogen) at 40 mA/gel. Since LL-37 is a small peptide, samples were run only halfway through the gel. The gels where then washed in Mill-Q water 3 times, 10 min before immersion in Imperial Protein Stain (Thermo Scientific) for 1 h. After that Mill-Q water was used to destain the gels before image acquisition on GelDoc XRS+ (Bio-Rad, Hercules, CA, USA). Bands were quantified using Image Studio Lite v. 5.2 (LI-COR Biosciences, Lincoln, NE, USA).

[2] = molecular target: T1, Proteinase K; design: method as in PMID 10417311; conditions: after 2 h; cited from earlier work
Description: In order to assess the enzymatic degradation of LL-37 and the protective potential from the CaPS nanocarriers, a degradation assay utilizing Proteinase K was performed (Sodium Dodecyl Sulfate–Polyacrylamide Gel Electrophoresis, SDS-PAGE).

T1 sequence (P06873 106-384): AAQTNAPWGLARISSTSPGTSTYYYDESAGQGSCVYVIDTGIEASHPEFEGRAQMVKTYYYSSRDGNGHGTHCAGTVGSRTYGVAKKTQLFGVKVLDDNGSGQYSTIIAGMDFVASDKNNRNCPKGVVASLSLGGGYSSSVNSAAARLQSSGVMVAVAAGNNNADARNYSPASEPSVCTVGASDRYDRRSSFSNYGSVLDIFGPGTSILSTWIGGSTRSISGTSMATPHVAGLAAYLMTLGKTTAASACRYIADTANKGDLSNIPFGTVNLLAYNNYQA

In the case of `CC[C@H](C)[C@H](NC(=O)[C@H](CCCCN)NC(=O)[C@H](CCC(=O)O)NC(=O)[C@H](CCCCN)NC(=O)[C@H](CO)NC(=O)[C@H](CCCCN)NC(=O)[C@H](CCCNC(=N)N)NC(=O)[C@H](Cc1ccccc1)NC(=O)[C@H](Cc1ccccc1)NC(=O)[C@H](CC(=O)O)NC(=O)CNC(=O)[C@H](CC(C)C)NC(=O)[C@@H](N)CC(C)C)C(=O)NCC(=O)N[C@@H](CCCCN)C(=O)N[C@@H](CCC(=O)O)C(=O)N[C@@H](Cc1ccccc1)C(=O)N[C@@H](CCCCN)C(=O)N[C@@H](CCCNC(=N)N)C(=O)N[C@H](C(=O)N[C@H](C(=O)N[C@@H](CCC(N)=O)C(=O)N[C@@H](CCCNC(=N)N)C(=O)N[C@H](C(=O)N[C@@H](CCCCN)C(=O)N[C@@H](CC(=O)O)C(=O)N[C@@H](Cc1ccccc1)C(=O)N[C@@H](CC(C)C)C(=O)N[C@@H](CCCNC(=N)N)C(=O)N[C@@H](CC(N)=O)C(=O)N[C@@H](CC(C)C)C(=O)N[C@H](C(=O)N1CCC[C@H]1C(=O)N[C@@H](CCCNC(=N)N)C(=O)N[C@H](C(=O)N[C@@H](CCC(=O)O)C(=O)N[C@@H](CO)C(=O)O)[C@@H](C)O)C(C)C)[C@@H](C)CC)C(C)C)[C@@H](C)CC` [LL-37], the “incubation time after which the LL-37 band (4.5 kDa) starts fading” value [1] is listed as 20 min and the uncleaved peptide [2] is listed as ~ 5%.
